Laboratory results as given in ChEMBL document CHEMBL3885861, “Open TG-GATES”.

Species on record: Rattus norvegicus
Assay: Open TG-GATES - Regimen: Single
Type: toxicity, organism-based, Sprague-Dawley
Parameters: regimen Single, gender Male, age 6 weeks
Conditions: in vivo, po, 20 mg/kg, route gavage, dose level Middle; for APTT / Bas / Eos / Fbg / Hb / Ht / Lym / MCH / MCHC / MCV / Mono / Neu / PT / Plat / RBC / Ret / WBC: tissue Blood; for LIVER: tissue Liver; for A/G / ALP / ALT / AST / BUN / CRE / Ca / Cl / DBIL / GLC / IP / K / LDH / Na / PL / RALB / TBIL / TC / TG / TP / gamma-GTP: tissue Plasma

`O=[N+]([O-])c1ccc(O)c([N+](=O)[O-])c1` [2,4-DINITROPHENOL] was tested, and the TERMINAL_BW (3 h) was 203.6 g, the APTT (3 h) was 16.6 s and the Bas (3 h) was 0%. The Eos (3 h) was 1%, the Fbg (3 h) was 246.4 mg/dL and the Hb (3 h) was 12.6 g/dL. It also gave a Ht (3 h) of 37.5%, a Lym (3 h) of 75% and an MCH (3 h) of 22 pg. The MCHC (3 h) was 33.5%, the MCV (3 h) was 65.6 fL and the Mono (3 h) was 11.8%. It also gave a Neu (3 h) of 12.4%, a PT (3 h) of 11.8 s and a Plat (3 h) of 115.4 x10_4/uL. The RBC (3 h) was 572.2 x10_4/ul, the Ret (3 h) was 10.2% and the WBC (3 h) was 93.4 x10_2/uL. For the same compound, the LIVER (3 h) was 9.5 g, the A/G (3 h) was 2.3 and the ALP (3 h) was 1342.4 IU/L. It also gave an ALT (3 h) of 37.8 IU/L, an AST (3 h) of 62.6 IU/L and a BUN (3 h) of 12.8 mg/dL. For the same compound, the CRE (3 h) was 0.4 mg/dL, the Ca (3 h) was 11.9 mg/dL and the Cl (3 h) was 104 meq/L. It also gave a DBIL (3 h) of 0.012 mg/dL, a GLC (3 h) of 218.2 mg/dL and an IP (3 h) of 10.9 mg/dL. It also gave a K (3 h) of 4.2 meq/L, an LDH (3 h) of 125.2 IU/L and a Na (3 h) of 138.4 meq/L. For the same compound, the PL (3 h) was 143 mg/dL, the RALB (3 h) was 3.8 g/dL and the TBIL (3 h) was 0.036 mg/dL. For the same compound, the TC (3 h) was 85.4 mg/dL, the TG (3 h) was 68.6 mg/dL and the TP (3 h) was 5.5 g/dL. For the same compound, the gamma-GTP (3 h) was 0 IU/L, the TERMINAL_BW (6 h) was 200.1 g and the APTT (6 h) was 16 s. It also gave a Bas (6 h) of 0%, an Eos (6 h) of 1.2% and a Fbg (6 h) of 235 mg/dL. For the same compound, the Hb (6 h) was 13.1 g/dL, the Ht (6 h) was 39.1% and the Lym (6 h) was 71.4%. For the same compound, the MCH (6 h) was 22 pg, the MCHC (6 h) was 33.6% and the MCV (6 h) was 65.5 fL. The Mono (6 h) was 10.2%, the Neu (6 h) was 17.2% and the PT (6 h) was 12 s. For the same compound, the Plat (6 h) was 124 x10_4/uL, the RBC (6 h) was 596.4 x10_4/ul and the Ret (6 h) was 8.9%. The WBC (6 h) was 111 x10_2/uL, the LIVER (6 h) was 8.2 g and the A/G (6 h) was 2.6. The ALP (6 h) was 1422.2 IU/L, the ALT (6 h) was 36.4 IU/L and the AST (6 h) was 78.6 IU/L. The BUN (6 h) was 12.2 mg/dL, the CRE (6 h) was 0.4 mg/dL and the Ca (6 h) was 11 mg/dL. For the same compound, the Cl (6 h) was 105.8 meq/L, the DBIL (6 h) was 0.02 mg/dL and the GLC (6 h) was 204.6 mg/dL. The IP (6 h) was 10.9 mg/dL, the K (6 h) was 4.5 meq/L and the LDH (6 h) was 129.2 IU/L. It also gave a Na (6 h) of 139.2 meq/L, a PL (6 h) of 141.2 mg/dL and an RALB (6 h) of 3.9 g/dL. The TBIL (6 h) was 0.044 mg/dL, the TC (6 h) was 85.6 mg/dL and the TG (6 h) was 46.4 mg/dL. The TP (6 h) was 5.4 g/dL, the gamma-GTP (6 h) was 0 IU/L and the TERMINAL_BW (9 h) was 203.1 g. It also gave an APTT (9 h) of 16.2 s, a Bas (9 h) of 0% and an Eos (9 h) of 0.8%. For the same compound, the Fbg (9 h) was 255.5 mg/dL, the Hb (9 h) was 12.9 g/dL and the Ht (9 h) was 38.4%. It also gave a Lym (9 h) of 77.2%, an MCH (9 h) of 22.1 pg and an MCHC (9 h) of 33.8%. The MCV (9 h) was 65.4 fL, the Mono (9 h) was 4.8% and the Neu (9 h) was 17.2%. It also gave a PT (9 h) of 12 s, a Plat (9 h) of 132.8 x10_4/uL and an RBC (9 h) of 587.2 x10_4/ul. For the same compound, the Ret (9 h) was 10.4%, the WBC (9 h) was 104.5 x10_2/uL and the LIVER (9 h) was 8.5 g. The A/G (9 h) was 2.4, the ALP (9 h) was 1370.8 IU/L and the ALT (9 h) was 34 IU/L. For the same compound, the AST (9 h) was 64.5 IU/L, the BUN (9 h) was 10.5 mg/dL and the CRE (9 h) was 0.4 mg/dL. The Ca (9 h) was 11.3 mg/dL, the Cl (9 h) was 104.5 meq/L and the DBIL (9 h) was 0.02 mg/dL. It also gave a GLC (9 h) of 198.5 mg/dL, an IP (9 h) of 11.2 mg/dL and a K (9 h) of 4.7 meq/L. The LDH (9 h) was 158 IU/L, the Na (9 h) was 139 meq/L and the PL (9 h) was 153.8 mg/dL. It also gave an RALB (9 h) of 3.9 g/dL, a TBIL (9 h) of 0.045 mg/dL and a TC (9 h) of 83.5 mg/dL. It also gave a TG (9 h) of 70.2 mg/dL, a TP (9 h) of 5.6 g/dL and a gamma-GTP (9 h) of 0 IU/L. It also gave a TERMINAL_BW (24 h) of 216.8 g, an APTT (24 h) of 15.6 s and a Bas (24 h) of 0%. For the same compound, the Eos (24 h) was 1.2%, the Fbg (24 h) was 234.2 mg/dL and the Hb (24 h) was 12.9 g/dL. The Ht (24 h) was 38.4%, the Lym (24 h) was 70.4% and the MCH (24 h) was 21.6 pg. It also gave an MCHC (24 h) of 33.7%, an MCV (24 h) of 64.2 fL and a Mono (24 h) of 11.6%. For the same compound, the Neu (24 h) was 16.8%, the PT (24 h) was 11.7 s and the Plat (24 h) was 125.6 x10_4/uL. For the same compound, the RBC (24 h) was 597.8 x10_4/ul, the Ret (24 h) was 9% and the WBC (24 h) was 122.2 x10_2/uL. It also gave an LIVER (24 h) of 11.1 g, an A/G (24 h) of 2.4 and an ALP (24 h) of 1483.4 IU/L. For the same compound, the ALT (24 h) was 43.2 IU/L, the AST (24 h) was 67.2 IU/L and the BUN (24 h) was 16 mg/dL. The CRE (24 h) was 0.4 mg/dL, the Ca (24 h) was 11.3 mg/dL and the Cl (24 h) was 103.2 meq/L. The DBIL (24 h) was 0.01 mg/dL, the GLC (24 h) was 182.2 mg/dL and the IP (24 h) was 7.2 mg/dL. The K (24 h) was 4.6 meq/L, the LDH (24 h) was 101.4 IU/L and the Na (24 h) was 139 meq/L. For the same compound, the PL (24 h) was 163.8 mg/dL, the RALB (24 h) was 3.9 g/dL and the TBIL (24 h) was 0.032 mg/dL. The TC (24 h) was 90 mg/dL, the TG (24 h) was 131.8 mg/dL and the TP (24 h) was 5.5 g/dL. The gamma-GTP (24 h) was 0.8 IU/L.
